Biological target: T1, Orco (Or83b) (Drosophila melanogaster, UniProt Q9VNB5)
T1 construct: full-length Orco in pcDNA3.1(-), expressed alone (no OrX) in HEK293 cells
T1 sequence (Q9VNB5 1-486): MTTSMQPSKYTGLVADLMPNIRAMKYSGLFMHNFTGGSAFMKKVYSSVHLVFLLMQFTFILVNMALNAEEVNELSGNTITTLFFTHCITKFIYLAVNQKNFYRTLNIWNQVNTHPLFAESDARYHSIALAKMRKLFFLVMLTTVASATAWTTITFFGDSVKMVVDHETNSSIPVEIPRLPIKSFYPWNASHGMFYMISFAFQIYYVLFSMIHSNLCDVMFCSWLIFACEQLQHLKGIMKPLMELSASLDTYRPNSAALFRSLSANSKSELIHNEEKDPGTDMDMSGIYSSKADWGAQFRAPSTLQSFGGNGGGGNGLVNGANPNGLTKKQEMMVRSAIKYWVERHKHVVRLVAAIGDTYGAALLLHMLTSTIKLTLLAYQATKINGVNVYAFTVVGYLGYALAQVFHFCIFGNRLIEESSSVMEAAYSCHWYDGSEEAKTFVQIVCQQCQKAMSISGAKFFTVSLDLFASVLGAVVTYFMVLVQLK
Test: fura-2 calcium imaging, HEK293 cells
Assay type: cell-based
Details: block of VUAA1-evoked (100 or 50 uM) calcium rise; KB-R7943 100 uM (Methods); pH 7.4; Orco without OrX

N=C(N)SCCc1ccc(OCc2ccc([N+](=O)[O-])cc2)cc1 [KB-R7943, 2-[4-[(4-nitrophenyl)methoxy]phenyl]ethyl ester carbamimidothiotic acid, monomethanesulfonate]
fura-2 calcium imaging, HEK293 cells: we confirmed that KB-R7943 is blocking Orco

From paper PMC6038709, “The Drosophila melanogaster Na^+/Ca^2+ Exchanger CALX Controls the Ca^2+ Level in Olfactory Sensory Neurons at Rest and After Odorant Receptor Activation” (Frontiers in Cellular Neuroscience, 2018)
